Broadly, the inhibition is the relative decrease from the control value, in per cent.

We go through two compounds from US10927106B2, “Benzothiazole derivatives as DYRK1 inhibitors” (PHARMASUM THERAPEUTICS AS, priority 2017, dated 2021).

The target in one assay is MKK1 (Homo sapiens (Human), UniProt Q02750). Put plainly: Kinase profiling, 33P ATP filter binding assay. It is filed as biochemical. To be noted: 1 micromolar inhibitor concentration, read-out: percentage inhibition.
The next assay deals with MAPKAP-K3 (Homo sapiens (Human), UniProt Q16644). Put plainly: Kinase profiling, 33P ATP filter binding assay. It is filed as biochemical. To be noted: 1 micromolar inhibitor concentration, read-out: percentage inhibition.
MAPKAP-K3, sequence (Q16644 whole entry, species assumed): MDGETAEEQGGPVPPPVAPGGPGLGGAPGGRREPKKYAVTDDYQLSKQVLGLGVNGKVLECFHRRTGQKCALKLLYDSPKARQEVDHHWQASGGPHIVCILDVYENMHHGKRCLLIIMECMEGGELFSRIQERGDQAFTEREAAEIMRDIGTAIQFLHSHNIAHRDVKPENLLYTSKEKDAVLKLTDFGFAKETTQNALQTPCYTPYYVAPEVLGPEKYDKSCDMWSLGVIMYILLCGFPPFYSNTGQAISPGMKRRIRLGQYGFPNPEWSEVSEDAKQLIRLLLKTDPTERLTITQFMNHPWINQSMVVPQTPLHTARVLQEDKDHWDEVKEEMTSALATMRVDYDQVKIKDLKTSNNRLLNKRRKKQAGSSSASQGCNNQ
The next assay deals with CAMK1 (Homo sapiens (Human), UniProt Q14012). In words: Kinase profiling, 33P ATP filter binding assay. The settings on record: 1 micromolar inhibitor concentration, read-out: percentage inhibition. It is filed as biochemical.
CAMK1, sequence (Q14012 whole entry, species assumed): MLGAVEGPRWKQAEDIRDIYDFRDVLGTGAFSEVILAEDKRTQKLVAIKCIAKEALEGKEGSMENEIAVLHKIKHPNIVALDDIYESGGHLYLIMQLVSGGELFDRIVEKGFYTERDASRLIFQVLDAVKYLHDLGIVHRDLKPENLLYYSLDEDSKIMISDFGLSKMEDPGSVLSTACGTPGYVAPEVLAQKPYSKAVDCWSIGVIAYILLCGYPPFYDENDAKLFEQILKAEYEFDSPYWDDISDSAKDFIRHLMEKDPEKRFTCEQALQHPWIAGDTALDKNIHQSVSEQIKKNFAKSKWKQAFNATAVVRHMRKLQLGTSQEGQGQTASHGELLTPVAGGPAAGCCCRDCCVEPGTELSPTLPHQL
For assay [1], the system named is tau/MAPT phosphorylation in control neurons. Put plainly: Tau/MAPT phosphorylation in control neurons, Western blotting. In kind it is cell-based, human. To be noted: treated for 10 days, compared to DMSO treated controls. As to the method: (§1) Overexpression of DYRK1A in DS is thought to account for increased tau phosphorylation by GSK3β and the increase in DYRK1A positive neurofibrillary tangles (NFTs) in the brains of people with DS and AD. Therefore therapeutic inhibition of DYRK1A activity in DS and AD may delay the progression of neurodegeneration in DS and AD. The following experiment on reduction of tau phosphorylation by inhibition of DYRK1A by inhibitor 4-93 was performed as described in the literature (Shi, Y. et al. A human stem cell model of early Alzheimer's disease pathology in Down syndrome. Sci. Transl. Med. 4, 124ra29 (2012)).
(§2) Neuronal cultures at day 40 were treated with DYRK1A inhibitors and control compounds for 10 days. Total protein was extracted and total tau and phosphorylated tau/MAPT was quantified by Western blotting using antibodies to total tau and a number of phospho-tau epitopes.

The test system of assay [2] is tau/MAPT phosphorylation in TS21 neurons. Put plainly: Tau/MAPT phosphorylation in TS21 neuronal cultures, Western blotting. In kind it is cell-based, human. The settings on record: TS21 neurons. As to the method:
as §1, §2
In general terms: A western blot detects proteins with antibodies after separation by electrophoresis.

In another assay the target is SmMLCK (Homo sapiens (Human), UniProt Q15746). Put plainly: Kinase profiling, 33P ATP filter binding assay. It is filed as biochemical. The settings on record: 1 micromolar inhibitor concentration, read-out: percentage inhibition.
The next assay deals with DDR2 (Homo sapiens (Human), UniProt Q16832). Put plainly: Kinase profiling, 33P ATP filter binding assay. To be noted: 1 micromolar inhibitor concentration, read-out: percentage inhibition. It is filed as biochemical.
DDR2, sequence (Q16832 22-855, species assumed): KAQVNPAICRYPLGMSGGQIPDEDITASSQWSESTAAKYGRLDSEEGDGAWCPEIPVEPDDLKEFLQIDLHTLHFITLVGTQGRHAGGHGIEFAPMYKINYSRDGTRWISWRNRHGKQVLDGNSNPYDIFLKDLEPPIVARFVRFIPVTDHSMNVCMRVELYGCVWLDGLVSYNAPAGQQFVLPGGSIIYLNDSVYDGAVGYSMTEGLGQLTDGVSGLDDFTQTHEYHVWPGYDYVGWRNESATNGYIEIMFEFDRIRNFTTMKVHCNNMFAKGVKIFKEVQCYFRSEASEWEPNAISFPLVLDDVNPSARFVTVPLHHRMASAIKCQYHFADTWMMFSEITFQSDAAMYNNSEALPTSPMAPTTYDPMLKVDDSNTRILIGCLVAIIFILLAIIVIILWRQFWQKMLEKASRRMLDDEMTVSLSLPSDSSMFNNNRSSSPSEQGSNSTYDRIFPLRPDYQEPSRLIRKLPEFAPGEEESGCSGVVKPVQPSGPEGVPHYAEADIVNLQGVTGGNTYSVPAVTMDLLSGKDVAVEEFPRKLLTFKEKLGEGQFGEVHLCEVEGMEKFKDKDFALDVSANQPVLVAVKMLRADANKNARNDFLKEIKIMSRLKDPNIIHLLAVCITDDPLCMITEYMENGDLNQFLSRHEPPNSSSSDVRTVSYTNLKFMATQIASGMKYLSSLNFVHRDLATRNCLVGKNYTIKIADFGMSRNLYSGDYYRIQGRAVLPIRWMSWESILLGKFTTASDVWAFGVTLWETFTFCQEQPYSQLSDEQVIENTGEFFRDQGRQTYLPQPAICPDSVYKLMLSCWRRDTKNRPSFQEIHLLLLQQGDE
For the next assay, the system named is AMPK (hum). To be noted: 1 micromolar inhibitor concentration.
Another assay has as its system ROCK 2. The settings on record: 1 micromolar inhibitor concentration.
Another assay deals with GSK3b (Homo sapiens (Human), UniProt P49841). Put plainly: Kinase profiling, 33P ATP filter binding assay. In kind it is biochemical. The settings on record: 1 micromolar inhibitor concentration, read-out: percentage inhibition.
GSK3b, sequence (P49841 whole entry, species assumed): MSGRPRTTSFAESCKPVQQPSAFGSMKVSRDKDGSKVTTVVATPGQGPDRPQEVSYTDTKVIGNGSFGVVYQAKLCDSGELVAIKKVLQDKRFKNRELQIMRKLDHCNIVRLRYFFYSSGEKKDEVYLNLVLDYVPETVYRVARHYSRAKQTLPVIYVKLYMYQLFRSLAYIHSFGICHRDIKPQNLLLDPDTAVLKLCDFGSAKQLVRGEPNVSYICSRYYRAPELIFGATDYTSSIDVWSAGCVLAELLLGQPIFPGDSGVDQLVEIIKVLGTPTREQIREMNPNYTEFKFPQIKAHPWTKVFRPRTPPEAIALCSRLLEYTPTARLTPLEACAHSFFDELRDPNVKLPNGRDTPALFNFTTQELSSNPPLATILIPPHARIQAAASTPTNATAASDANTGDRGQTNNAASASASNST
In a further assay the test system is PINK. To be noted: 1 micromolar inhibitor concentration.
The next assay deals with CLK2 (Homo sapiens (Human), UniProt P49760). In words: Kinase profiling, 33P ATP filter binding assay. It is filed as biochemical. To be noted: 1 micromolar inhibitor concentration, read-out: percentage inhibition.
CLK2, sequence (P49760 whole entry, species assumed): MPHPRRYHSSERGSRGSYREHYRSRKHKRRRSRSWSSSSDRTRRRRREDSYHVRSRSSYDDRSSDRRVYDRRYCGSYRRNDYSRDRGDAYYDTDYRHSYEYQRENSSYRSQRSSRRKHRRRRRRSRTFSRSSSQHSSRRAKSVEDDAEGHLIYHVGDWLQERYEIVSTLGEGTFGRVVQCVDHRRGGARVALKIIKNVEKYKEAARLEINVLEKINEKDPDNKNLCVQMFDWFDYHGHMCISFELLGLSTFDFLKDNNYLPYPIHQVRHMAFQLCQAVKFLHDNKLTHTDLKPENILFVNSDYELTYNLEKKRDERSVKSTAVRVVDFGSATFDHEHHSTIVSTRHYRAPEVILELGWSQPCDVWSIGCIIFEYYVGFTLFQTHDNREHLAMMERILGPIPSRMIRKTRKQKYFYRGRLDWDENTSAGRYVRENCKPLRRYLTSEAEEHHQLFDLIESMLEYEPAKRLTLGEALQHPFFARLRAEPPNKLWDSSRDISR
In a further assay the test system is PHK. The settings on record: 1 micromolar inhibitor concentration.
Setting [3] is: ten days treatment, vs DMSO treated controls or DAPT treated positive controls.
The mark [4] stands for this setting: treated for 10 days, normalised to β-actin, vs DMSO treated controls.

MKK1, sequence (Q02750 whole entry, species assumed): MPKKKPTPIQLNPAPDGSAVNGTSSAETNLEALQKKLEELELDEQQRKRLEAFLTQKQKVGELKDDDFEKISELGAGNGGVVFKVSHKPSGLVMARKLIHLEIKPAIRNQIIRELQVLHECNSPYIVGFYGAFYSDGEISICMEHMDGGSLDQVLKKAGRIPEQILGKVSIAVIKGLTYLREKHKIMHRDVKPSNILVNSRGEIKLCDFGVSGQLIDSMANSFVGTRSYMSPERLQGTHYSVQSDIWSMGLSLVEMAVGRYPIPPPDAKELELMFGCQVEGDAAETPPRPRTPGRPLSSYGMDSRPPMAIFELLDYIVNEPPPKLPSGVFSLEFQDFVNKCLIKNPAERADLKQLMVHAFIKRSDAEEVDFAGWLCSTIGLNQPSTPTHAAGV
Source text for AMPK (hum): The ATP concentrations were at or below the calculated Km for ATP for each particular kinase.
Procedure for PHK: (§3) The determination of protein kinase inhibition was performed at the International Centre for Kinase Profiling at the University of Dundee, UK. […] The ATP concentrations were at or below the calculated Km for ATP for each particular kinase.
Procedure for PINK: as §3
Procedure for ROCK 2: as §3
Procedure for SmMLCK: as §3

`COc1ccc2sc(-c3cncc(NC(C)=O)c3)nc2c1` [4-93, N-(5-(5-Methoxybenzo[d]thiazol-2-yl)pyridin-3-yl)acetamide]: the inhibition at 1 µM at MKK1 was determined as 0%; at MAPKAP-K3 it was 0%; on CAMK1, 0%; on SmMLCK, 0%; on DDR2 it was 2%. Besides, the “tau/MAPT phosphorylation at Ser 396” value in assay [1] is “slight increase”. Besides, the “tau/MAPT phosphorylation at Ser 404” value in assay [1] is given as “slight increase”. In addition, in assay [2] (ten days treatment), the “phosphorylation of Ser 214 normalised to total tau levels” value was “unaffected”. The “phosphorylated tau/MAPT at Ser 396 normalised to total tau levels” value in [2] (setting [3]) is reported as “significantly lower”. In addition, the “phosphorylated tau/MAPT at Ser 404 normalised to total tau levels” value in assay [2] (setting [3]) was “significantly lower”. For the same compound, the “tau phosphorylation at Ser 396” value in assay [2] (setting [4]) is “significantly reduced”. In addition, in assay [2] (setting [4]), the “tau phosphorylation at Ser 404” value is on record as “significantly reduced”. Besides, the “phosphorylation at Ser 214” value in assay [2] (treated for 10 days, site not phosphorylated by DYRK1A) is given as “do not affect”.
Take `CS(=O)(=O)Nc1cncc(-c2nc3cc(O)ccc3s2)c1` [4-99, N-(5-(5-Hydroxybenzo[d]thiazol-2-yl)pyridin-3-yl)methanesulfonamide]: the percentage inhibition in the assay on AMPK (hum), in the assay with ROCK 2, in the assay on PINK and with PHK was 0% each time. Besides, the inhibition at 1 µM turned out to be 0% at GSK3b; 0% at MKK1; 0% on MAPKAP-K3; 44% at CLK2; 0% at CAMK1; 0% at SmMLCK. The inhibition at 1 µM at DDR2 amounted to 0%.
